Source: US20250282895A1, “PHARMACEUTICAL COMPOSITIONS OF CHEMOTHERAPEUTIC AGENTS BASED ON BETA-S[…]-AMINO ACID DERIVATIVES” (priority 2021, published 2025)
Structures can show the parent of a compound that is named as a salt.

What was measured:
[1] = Comparative stability, Formulation 2 (based on Alkeran); assay type: physicochemical; details: Formulation 2, 25° C.
Method: The stability of Compound (1c) either as the HCl salt or as the free base was compared to the stability of melphalan HCl and/or bendamustine HCl in various pharmaceutical formulations and at different concentrations and at temperatures of 0° C. or 25° C.
The stability of the compounds in the pharmaceutical formulations was determined at concentrations within the range from 0.4 mg/mL to 0.5 mg/mL, from 0.9 mg/mL to 1.1 mg/mL, and from 1.8 mg/mL to 2.1 mg/mL.
The amount of the active pharmaceutical ingredient (API) (Compound (1c), melphalan or bendamustine) in the pharmaceutical formulations at different times during storage was determined using HPLC/UV as described in detail for Example 4 and Example 5.
Alkeran® is an injectable formulation of melphalan-HCl approved by the FDA. Alkeran® for injection is supplied as a sterile, nonpyrogenic, freeze-dried powder. Each vial contains melphalan hydrochloride equivalent to 50 mg melphalan and 20 mg povidone (polyvinylpyrrolidinone, PVP). The solid powder is recons trued in a sterile diluent containing 0.2 g of sodium citrate, 6.0 mL of propylene glycol, and 0.52 mL of ethanol (96%) and Water for Injection for a total of 10 mL. This provides a nominal 5 mg/mL solution of melphalan (admixture). The dose to be administered is immediately diluted in 0.9% sodium chloride injection, USP, to a concentration not greater than 0.45 mg/mL. Alkeran® for injection is administered intravenously.
A stock solution was prepared by dissolving 68.8 mg (0.206 mmol) of Compound (1c) (free base) and 25.0 mg of Plasdone® C-12 (Povidone; Ashland, 830796) in about 20.0 mL of a mixture of acetonitrile/water (1:1, v/v) with vortexing in clean graduated glass cylinder (25 mL). A solution of 0.407 mL of 0.5072 M aq. HCl (0.206 mmol, 1.0 eq.; Fluka, 318957) was added with gentle vortexing, and the resulting clear solution was further diluted to 25.0 mL with a mixture of acetonitrile/water (1:1, v/v) with gentle vortexing to afford a stock solution of Compound (1c) as a mono-HCl salt of a concentration 2.75 mg/mL and a Plasdone® concentration of 1.0 mg/mL. This solution was filtered through a 0.45 μm nylon syringe filter into a clean 50 mL Erlenmeyer flask. Aliquots of 2.0 mL (2× 1.0 mL; 2× 2.75 mg) of this stock solution were rapidly pipetted into clean 12 mL scintillation vials. The aliquots were frozen at −78° C. (dry ice/acetone bath) and lyophilized at about 100 mTorr for about 16 hours to provide test vials each containing 6.1 mg (0.0165 mmol) of Compound (1c) mono-hydrochloride salt (mono-HCl salt) (corresponding to 5.5 mg of Compound (1c), free base, as a colorless powdery solid.
A stock solution was prepared by dissolving 62.5 mg (0.205 mmol) of melphalan (free base; SigmaAldrich, M2011) and 25.0 mg of Plasdone® C-12 (Povidone; Ashland, 830796) in about 20.0 mL of a mixture of acetonitrile/water (1:1, v/v) with vortexing in clean graduated glass cylinder (25 mL). A solution of 0.404 mL of 0.5072 M aq. HCl (0.205 mmol, 1.0 eq.; Fluka, 318957) was added with gentle vortexing, and the resulting clear solution was further diluted to 25.0 mL with a mixture of acetonitrile/water (1:1, v/v) with gentle vortexing to afford a stock solution of melphalan as a mono-HCl salt of a concentration 2.50 mg/mL and a Plasdone® concentration of 1.0 mg/mL. This solution was filtered through a 0.45 μm nylon syringe filter into a clean 50 mL Erlenmeyer flask. Aliquots of 2.0 mL (2× 1.0 mL; 2×2.50 mg) of this stock solution were rapidly pipetted into clean 12 mL scintillation vials. The aliquots were frozen at −78° C. (dry ice/acetone bath) and lyophilized at about 100 mTorr for about 16 hours to provide test vials each containing 5.6 mg (0.0164 mmol) of melphalan mono-hydrochloride salt (mono-HCl salt) (corresponding to 5.0 mg of melphalan as a free base) as a colorless powdery solid. […]

[2] = Stability (impurities) of Compound (1c):SBE6.5-β-CD formulations at different pH values; assay type: physicochemical; details: listed as Compound (1c) HCl salt, mono hydrochloride salt
Method: The stability of Compound (1c) in formulations containing a Compound (1c): SBE6.5-β-CD guest-host inclusion complex at different pH was determined by analytical HPLC/UV. The mass ratio of Compound (1c) to SBE6.5-β-CD was either 1:54 or 1:50.
To prepare the formulations, SBE6.5-β-CD was dissolved in water for injection (WFI) by continuous stirring until a clear solution was obtained. The solution was acidified by addition of 1 N HCl. Compound (1c) was dissolved in the acidified aqueous SBE6.5-β-CD solution and water was added at Q.S. to the final volume to prepare a solution with a nominal concentration of 5.0 mg/mL of Compound (1c). The pH was adjusted with 1 N HCl to the values shown in Table 7 which corresponded to the pH of the final formulation after reconstitution with 0.9% saline. The solution was filtered through a 0.22 μm syringe filter followed by lyophilization to dryness affording a colorless powdery solid. The freeze-dried lyophilizate was reconstituted with 0.9% saline to the nominal target concentration of 5.0 mg/mL of Compound (1c). […]
Analytical HPLC/UV was performed on a HPLC chromatograph equipped with a UV detector, a Waters Xbridge® C18 column (4.6× 150 mm; 5 μm) operated at 30° C. and a personal computer for data computation. Gradients of 0.01 M potassium dihydrogen phosphate solution (KH2PO4) solution adjusted to pH to 3.0 with phosphoric acid (H3PO4): acetonitrile=850:150 (v/v) (solvent A) and acetonitrile (MeCN; solvent B) were used in the analytical HPLC/UV analyses. The needle wash was performed with 50% aqueous acetonitrile. Prior to injection into the HPLC/UV system (10 μL injection volume), samples were diluted to a nominal concentration of 0.5 mg/mL of Compound (1c) with a 0.9 M sodium chloride (NaCl) and 0.1 N hydrochloric acid (HCl) diluent. The diluent solution was prepared from 5.26 g (90.0 mmol) of sodium chloride and 850 μL of concentrated hydrochloric acid (HCl) (36-38 wt-%, d 1.184, 1.00 g, 10.2 mmol) diluted to 100 mL solution.
The HPLC/UV method used employed a gradient from 10 vol-% of solvent B to 100 vol-% of solvent B with a 36 min runtime at a flow rate of 1.5 mL/min and UV detection at 2=220 nm.

[3] = pH 5.5-5.8, 0.5 hours, 0.4-0.5 mg/mL
[4] = pH 5.5-5.8, 0.5 hours, 0.9-1.1 mg/mL
[5] = pH 5.5-5.8, 0.5 hours, 1.8-2.1 mg/mL
[6] = pH 5.5-5.8, 2.0 hours, 0.4-0.5 mg/mL
[7] = pH 5.5-5.8, 2.0 hours, 0.9-1.1 mg/mL
[8] = pH 5.5-5.8, 2.0 hours, 1.8-2.1 mg/mL
[9] = Compound (1c):SBE6.5-β-CD 1:54, pH 4.1, 0 h, 5.0 mg/mL in 0.9% saline
[10] = Compound (1c):SBE6.5-β-CD 1:54, pH 4.1, Cake

SMILES	% API [1, 3] [%]	% API [1, 4] [%]	% API [1, 5] [%]	% API [1, 6] [%]	% API [1, 7] [%]	% API [1, 8] [%]	Impurity (% AUC) RRT 0.36 [2, 9] [% AUC]	Impurity (% AUC) RRT 1.31 [2, 9] [% AUC]	Impurity (% AUC) Total [2, 9] [% AUC]	Impurity (% AUC) RRT 0.36 [2, 10] [% AUC]	Impurity (% AUC) RRT 1.31 [2, 10] [% AUC]	Impurity (% AUC) Total [2, 10] [% AUC]
Cl.N[C@@H](Cc1ccc(N(CCCl)CCCl)cc1)C(=O)O [Melphalan•HCl, 4-[bis(2-chloroethyl)amino]-L-phenylalanine hydrochloride, reference compound]	95	91	91	84	71	75						
Cc1ccc(N(CCCl)CCCl)cc1C[C@H](N)CC(=O)O [Compound (1c)•HCl, (S)-3-amino-4-(5-(bis(2-chloroethyl)amino)-2-methylphenyl) butanoic acid mono hydrochloride salt]	91	89	89	72	60	62	1.51	0.18	2.2	1.51	0.18	2.13
